Assay results from patent US11992473B2, “Compositions and methods for diagnosis and treatment of conditions related to the quality of aging and longevity” (Epitracker, Inc., priority 2018, dated 2024).

Key:
Assay type in all cases: cell-based, human
[1] = test system: Peripheral blood mononuclear cells, B cells; assay: BioMAP Diversity PLUS BT system (T cell dependent B cell activation)
Description: (§1) This study examined activities of small molecules discovered in dolphin serum that had protective profiles against diseases of aging which can impact quality of life and longevity. These molecules were tested across 12 human primary cell-based systems as part of DiscoverX's BioMAP Diversity Plus program. These systems are designed to model complex human tissue and disease biology of the vasculature, skin, lung, and inflammatory tissues. Quantitative measurements of biomarker activities across this broad panel, along with comparative analysis of biological activities of known bioactive agents were used to predict and compare the efficacy and function of the four compounds. Compounds were tested at four concentrations (740 nm and 2.2, 6.7 and 20 μM).
(§2) BioMAP panels consist of human primary cell-based systems designed to model different aspects of the human body in an in vitro format. The 12 systems in the Diversity PLUS panel allow test agent characterization in an unbiased way across a broad set of systems modeling various human disease states. BioMAP systems are constructed with one or more primary cell types from healthy human donors, with stimuli (such as cytokines or growth factors) added to capture relevant signaling networks that naturally occur in human tissue or pathological conditions. Vascular biology is modeled in both a Th1 (3C system) and a Th2 (4H system) inflammatory environment, as well as in a Th1 inflammatory state specific to arterial smooth muscle cells (CASM3C system). Additional systems recapitulate aspects of the systemic immune response including monocyte-driven Th1 inflammation (LPS system) or T cell stimulation (SAg system), chronic Th1 inflammation driven by macrophage activation (lMphg system) and the T cell-dependent activation of B cells that occurs in germinal centers (BT system). The BE3C system (Th1) and the BF4T system (Th2) represent airway inflammation of the lung, while the MyoF system models myofibroblast-lung tissue remodeling. Lastly, skin biology is addressed in the KF3CT system modeling Th1 cutaneous inflammation and the HDF3CGF system modeling wound healing.
(§3) Each test agent generates a signature BioMAP profile that is created from the changes in protein biomarker readouts within individual system environments. Biomarker readouts (7-17 per system) are selected for therapeutic and biological relevance, are predictive for disease outcomes or specific drug effects and are validated using agents with known mechanism of action (MoA). Each readout is measured quantitatively by immune-based methods that detect protein (e.g., ELISA) or functional assays that measure proliferation and viability. BioMAP readouts are diverse and include cell surface receptors, cytokines, chemokines, matrix molecules and enzymes.
(§4) The Diversity PLUS panel allows test agent characterization in an unbiased way across a broad set of systems modeling various human disease states. These systems are designed to model complex human tissue and disease biology of the vasculature, skin, lung, and inflammatory tissues.
(§5) BioMAP systems are constructed with one or more primary cell types from healthy human donors, with stimuli (such as cytokines or growth factors) added to capture relevant signaling networks that naturally occur in human tissue or pathological conditions. Vascular biology is modeled in both a Th1 (3C system) and a Th2 (4H system) inflammatory environment, as well as in a Th1 inflammatory state specific to arterial smooth muscle cells (CASM3C system). Additional systems recapitulate aspects of the systemic immune response including monocyte-driven Th1 inflammation (LPS system) or T cell stimulation (SAg system), chronic Th1 inflammation driven by macrophage activation (lMphg system) and the T cell-dependent activation of B cells that occurs in germinal centers (BT system).

Dermal fibroblasts = assay: BioMAP Diversity PLUS HDF3CGF system (wound healing and matrix/tissue remodeling)
Description: as §1, §2, §3, §4, §5

[2] = test system: Venular endothelial cells, peripheral blood mononuclear cells; assay: BioMAP Diversity PLUS LPS system (Th1 type chronic inflammation, monocyte activation); conditions: human cell system mimicking T-cell and monocyte driven chronic inflammation and cardiovascular diseases (FIG. 4)
Description: as §1, §2, §3, §4, §5

[3] = test system: Venular endothelial cells, peripheral blood mononuclear cells; assay: BioMAP Diversity PLUS SAg system (T cell stimulation, Th1 type chronic inflammation); conditions: for Significant log10 reduction compared to nontreated controls: T cell proliferation / Significant log10 reduction compared to nontreated controls: Monocyte chemoattractant protein 1 (MCP-1): SAg system; for T cell proliferation: concentrations ranging from 740 nm to 6.7 μM (FIG. 2)
Description: as §1, §2
as §3, with “enzymes. In total, the Diversity PLUS panel contains 148 biomarker readouts that capture biological changes that occur within the physiological context of the particular BioMAP system. Specific BioMAP activities have been correlated to in vivo biology, and multiparameter BioMAP profiles have been used to distinguish compounds based on MoA and target selectivity across diverse physiological systems.” for “enzymes.”
(§6) The Diversity PLUS panel allows test agent characterization in an unbiased way across a broad set of systems modeling various human disease states. These systems are designed to model complex human tissue and disease biology of the vasculature, skin, lung, and inflammatory tissues. Quantitative measurements of 148 biomarker activities across this broad panel, along with comparative analysis of biological activities from known bioactive agents, were used to predict and compare the efficacy and function of each selected compound at four concentrations (740 nm and 2.2, 6.7 and 20 μM). […]

[4] = test system: Macrophages, venular endothelial cells; assay: BioMAP Diversity PLUS lMphg system (Th1 type chronic inflammation, macrophage activation); conditions: /Mphg system; 2.2 μM
Description: as §1, §2
as §3, with “enzymes. In total, the Diversity PLUS panel contains 148 biomarker readouts that capture biological changes that occur within the physiological context of the particular BioMAP system. Specific BioMAP activities have been correlated to in vivo biology, and multiparameter BioMAP profiles have been used to distinguish compounds based on MoA and target selectivity across diverse physiological systems.” for “enzymes.”
as §6

Lung fibroblasts = assay: BioMAP Diversity PLUS MyoF system (myofibroblast differentiation and tissue remodeling)
Description: as §1, §2
as §3, with “enzymes. In total, the Diversity PLUS panel contains 148 biomarker readouts that capture biological changes that occur within the physiological context of the particular BioMAP system. Specific BioMAP activities have been correlated to in vivo biology, and multiparameter BioMAP profiles have been used to distinguish compounds based on MoA and target selectivity across diverse physiological systems.” for “enzymes.”
as §6

[5] = human cell system mimicking T-cell driven chronic inflammation and autoimmune diseases

## CCCCCCC=CCCCCCCCCC(=O)O [Compound 10-heptadecanoate]
[1]; BT system, 6.7 μM
  Significant log10 reduction compared to nontreated controls: Secreted interleukin 2 (IL-2): −0.11 log10

## N[C@@H](CCC(=O)NCC(=O)O)C(=O)O [Gamma-glutamylglycine]
[1]; BT system, 0.7 μM
  Significant log10 reduction compared to nontreated controls: Secreted interleukin 17A: −0.17 log10
[1]; BT system, 2.2 μM
  Significant log10 reduction compared to nontreated controls: Secreted interleukin 17A (IL-17A): −0.17 log10
[1]; human cell system mimicking asthma, autoimmunity and allergies (FIG. 5)
  interleukin 17A (IL-17A): lowered
Dermal fibroblasts; human cell system mimicking wound healing, remodeling, fibrosis and chronic inflammation (FIG. 7)
  decorin: inhibitory activity
[2]
  secretion of prostaglandin E2 (PGE2): lowered
[3]; 6.7 μM
  Significant log10 reduction compared to nontreated controls: T cell proliferation: −0.11 log10
[3]; 20.0 μM
  Significant log10 reduction compared to nontreated controls: T cell proliferation: −0.07 log10
[3]; human cell system mimicking T-cell driven chronic inflammation and autoimmune diseases, 740 nm, 2.2 μM, and 6.7 μM (FIG. 3)
  CD40: lowered
[3]; [5]
  T cell proliferation: decreased

## NC(=O)NCCCC[C@H](N)C(=O)O [Homocitrulline]
Dermal fibroblasts; human cell system mimicking wound healing, remodeling, fibrosis and chronic inflammation (FIG. 8)
  interleukin 8 (IL-8): inhibitory activity
[2]
  secretion of prostaglandin E2 (PGE2): lowered
[3]; [5]
  T cell proliferation: decreased

## CC(=O)NCCc1c[nH]cn1 [N-acetylhistamine]
[1]; BT system, 2.2 μM
  Significant log10 reduction compared to nontreated controls: B cell proliferation: −0.12 log10
[1]; BT system, 6.7 μM
  Significant log10 reduction compared to nontreated controls: B cell proliferation: −0.06 log10
[1]; BT system, 20.0 μM
  Significant log10 reduction compared to nontreated controls: B cell proliferation: −0.08 log10
  Significant log10 reduction compared to nontreated controls: Secreted interleukin 17A (IL-17A): −0.19 log10
  Significant log10 reduction compared to nontreated controls: Secreted interleukin 17F (IL-17F): −0.42 log10
[4]
  Significant log10 reduction compared to nontreated controls: Monocyte chemoattractant protein 1 (MCP-1): −0.26 log10
Dermal fibroblasts; HDF3CGF system, 6.7 μM
  Significant log10 reduction compared to nontreated controls: Vascular cell adhesion molecule 1 (VCAM-1): −0.08 log10
Dermal fibroblasts; HDF3CGF system, 20.0 μM
  Significant log10 reduction compared to nontreated controls: Collagen III: −0.13 log10
  Significant log10 reduction compared to nontreated controls: Vascular cell adhesion molecule 1 (VCAM-1): −0.15 log10
Lung fibroblasts; 0.7 μM
  Significant log10 reduction compared to nontreated controls: Alpha smooth muscle actin (αSMA): −0.05 log10
Lung fibroblasts; 2.2 μM
  Significant log10 reduction compared to nontreated controls: Alpha smooth muscle actin (αSMA): −0.06 log10
Lung fibroblasts; 6.7 μM
  Significant log10 reduction compared to nontreated controls: Alpha smooth muscle actin (αSMA): −0.11 log10
Lung fibroblasts; 20.0 μM
  Significant log10 reduction compared to nontreated controls: Alpha smooth muscle actin (αSMA): −0.09 log10

## CCCCCCCCCCCCCCC(=O)O [Pentadecanoate (C15:0), pentadecanoate]
[1]; BT system, 2.2 μM
  Significant log10 reduction compared to nontreated controls: Secreted interleukin 17A (IL-17A): −0.25 log10
  Significant log10 reduction compared to nontreated controls: Secreted interleukin 17F (IL-17F): −0.16 log10
[1]; BT system, 6.7 μM
  Significant log10 reduction compared to nontreated controls: Secreted immunoglobulin G (IgG): −0.17 log10
[1]; BT system, 20.0 μM
  Significant log10 reduction compared to nontreated controls: Secreted immunoglobulin G (IgG): −0.55 log10
  Significant log10 reduction compared to nontreated controls: Secreted interleukin 6 (IL-6): −0.29 log10
  Significant log10 reduction compared to nontreated controls: Secreted interleukin 17A (IL-17A): −0.29 log10
  Significant log10 reduction compared to nontreated controls: Secreted interleukin 17F (IL-17F): −0.18 log10
Dermal fibroblasts; HDF3CGF system, 6.7 μM
  Significant log10 reduction compared to nontreated controls: 72-hour fibroblast proliferation: −0.67 log10
  Significant log10 reduction compared to nontreated controls: Collagen I: −0.07 log10
  Significant log10 reduction compared to nontreated controls: Plasminogen activation inhibitor 1 (PAI-1): −0.08 log10
Dermal fibroblasts; HDF3CGF system, 20.0 μM
  Significant log10 reduction compared to nontreated controls: 72-hour fibroblast proliferation: −1.1 log10
  Significant log10 reduction compared to nontreated controls: Collagen I: −0.13 log10
  Significant log10 reduction compared to nontreated controls: Collagen III: −0.13 log10
  Significant log10 reduction compared to nontreated controls: Interferon gamma-induced protein 10 (IP-10)/CXCL10: −0.14 log10
  Significant log10 reduction compared to nontreated controls: Interferon-inducible T cell alpha chemoattractant (I-TAC)/CXCL11: −0.17 log10
  Significant log10 reduction compared to nontreated controls: Monokine induced by gamma interferon (MIG)/CXCL9: −0.10 log10
  Significant log10 reduction compared to nontreated controls: Plasminogen activation inhibitor 1 (PAI-1): −0.13 log10
  Significant log10 reduction compared to nontreated controls: Vascular cell adhesion molecule 1 (VCAM-1): −0.28 log10
[3]; 6.7 μM
  Significant log10 reduction compared to nontreated controls: Monocyte chemoattractant protein 1 (MCP-1): −0.18 log10
[3]; 20.0 μM
  Significant log10 reduction compared to nontreated controls: Monocyte chemoattractant protein 1 (MCP-1): −0.15 log10
